# From article PMC11566429 (Genes and Environment, 2024)
# Entries after “also recorded” stand apart in the source; their conditions may differ. Where two headings read alike, the source gives them in different places.
# Key:
# TA100 = assay: Ames test, mutagenic activity in TA100; assay type: cell-based, Salmonella typhimurium; conditions: maximum mutagenic activity
# Text: (§1) The maximum mutagenic activity (rev/mg) was used as an indicator of the magnitude of mutagenicity among those calculated according to the following equation from each representative experiment (main test or confirmatory test) for chemicals that were judged positive: Mutagenic activity (rev/mg) = (number of revertant colonies at each dose—number of revertant colonies for the negative control) / dose (mg).
# [1] = system: TA100, TA1535, TA98, TA1537, and WP2uvrA; assay: Ames test (preincubation method), five standard strains, overall judgement; conditions: for Ames test result (in words, text): presence and absence of S9 mix; for Ames test: presence and absence of rat liver S9 mix
# Procedure: The S9 mix (0.5 mL) consisted of 0.05 mL of the S9 fraction and 0.45 mL of a cofactor solution (Cofactor-1®; Oriental Yeast Co., Ltd.), and contained 8 mM MgCl2, 33 mM KCl, 5 mM glucose-6-phosphate, 4 mM NADPH, 4 mM NADH and 100 mM sodium phosphate (pH 7.4).
# Four strains of Salmonella typhimurium, TA100, TA1535, TA98, and TA1537 and one strain of Escherichia coli, WP2uvrA were used.
# Ames test was conducted using the preincubation method. […] For the tests carried out in the absence of S9 mix, 0.1 mL of the negative control (vehicle), test chemical solution at various concentrations, or positive control solution was added to a test tube, to which 0.5 mL of 100 mM sodium phosphate buffer (pH 7.4) and 0.1 mL of bacterial culture were added. For the tests carried out in the presence of the S9 mix, the S9 mix was added instead of the phosphate buffer. After mixing, the test tubes were preincubated at 37 °C for 20 min in a shaking water bath. After completion, the treatment mixture was immediately added and mixed with 2 mL of 0.05 mM L-histidine/0.05 mM biotin/0.05 mM L-tryptophan molten top agar and the content was poured onto a plate of minimal-glucose agar medium (Tesmedia®, Oriental Yeast). The plates were incubated at 37 °C for approximately 48 h and the revertant colonies that appeared were counted. The sign of the bacterial background lawn was examined as an indicator of cytotoxicity. In addition, the presence or absence of precipitates from the test chemicals was evaluated.
# Multiple tests (dose-finding, main, or confirmatory tests) were conducted. The dose-finding test for almost all the test chemicals was conducted with TA100 in the presence and absence of the S9 mix in a single plate per dose. The main test was conducted in duplicate with the five strains in the presence and absence of the S9 mix. […] Dimethyl sulfoxide (DMSO) was used as a negative control (vehicle).
# Mutagenicity was evaluated according to the so-called “two-fold” rule for TA100, TA98, and WP2uvrA, or “three-fold” rule for TA1535 and TA1537 [19]. […] Historical negative control counts were also considered during the evaluation.
# TA98 = assay: Ames test, mutagenic activity in TA98; assay type: cell-based, Salmonella typhimurium; conditions: maximum mutagenic activity
# Text: as §1
# TA100, TA98 = conditions: cited from earlier work
# [2] = system: TA100, TA1535, TA98, TA1537, TA97; conditions: TA100, TA1535, TA98, TA1537, TA97 (± S9) ref 16; cited from earlier work
# TA1537 = assay type: cell-based, Salmonella typhimurium; conditions: TA1537 -S9, maximum mutagenic activity
# Text: as §1
# WP2uvrA = assay: Ames test, mutagenic activity in WP2uvrA; assay type: cell-based, Escherichia coli; conditions: maximum mutagenic activity
# Text: as §1
# [3] = system: TA100, TA1535, TA98, TA1537, WP2uvrA; conditions: TA100, TA1535, TA98, TA1537, WP2uvrA (± S9) ref 9; cited from earlier work
# [4] = system: TA100, TA1535, TA98, TA1537, TA1538; conditions: presence or absence of S9 mix not clearly indicated ref 7; cited from earlier work
# TA100, TA98, TA102 = TA100, TA98, TA102 (± S9) ref 7; cited from earlier work
structure (smiles),measurement,setting,value
"c1cnc2cccnc2c1 [1,5-Naphthyridine]",Tester strains showing positive (mutagenic activity in rev/mg),TA100; TA100 +S9,TA100 +S9 (419) rev/mg
same,Tester strains showing positive (mutagenic activity in rev/mg),"TA100; TA100 +S9, listed as 1,5-naphthyridine",419 rev/mg
same,"Ames test result (in words, text)",[1],only mutagenic in TA100; also recorded: mutagenic only in the presence of the S9 mix
same,Ames test,[1]; quinoline analogues,"++ (""mutagenic (100-1000 rev/mg)"" in Ames test)"
"c1cnc2ccncc2c1 [1,6-Naphthyridine]","Ames test result (in words, text)",[1],not mutagenic
"c1cnc2cnccc2c1 [1,7-Naphthyridine]",Tester strains showing positive (mutagenic activity in rev/mg),TA100; TA100 +S9,255 rev/mg
same,Tester strains showing positive (mutagenic activity in rev/mg),TA100; TA100 -S9,40 rev/mg
same,Tester strains showing positive (mutagenic activity in rev/mg),TA98; TA98 +S9,24 rev/mg
same,Tester strains showing positive (mutagenic activity in rev/mg),TA98; TA98 -S9,12 rev/mg
same,"Ames test result (in words, text)",[1],mutagenic in both TA100 and TA98
same,"Ames test result (in words, text)","[1]; listed as 1,7-naphthyridine",mutagenic both in the presence and absence of the S9 mix
same,Ames test,[1]; quinoline analogues,"++ (""mutagenic (100-1000 rev/mg)"" in Ames test)"
"c1cnc2ncccc2c1 [1,8-Naphthyridine]",Tester strains showing positive (mutagenic activity in rev/mg),TA100; TA100 +S9,TA100 +S9 (170) rev/mg
same,Tester strains showing positive (mutagenic activity in rev/mg),"TA100; TA100 +S9, listed as 1,8-naphthyridine",170 rev/mg
same,"Ames test result (in words, text)",[1],only mutagenic in TA100; also recorded: mutagenic only in the presence of the S9 mix
same,Ames test,[1]; quinoline analogues,"++ (""mutagenic (100-1000 rev/mg)"" in Ames test)"
"c1cc2cnccc2cn1 [2,6-Naphthyridine]","Ames test result (in words, text)",[1],non-mutagenic
"c1cc2ccncc2cn1 [2,7-Naphthyridine]","Ames test result (in words, text)",[1],non-mutagenic
"c1cnc2cc[nH]c2c1 [4-Azaindole, 1H-Pyrrolo[3,2-b]pyridine]",Ames test,[1]; indole analogues,"+ (""mutagenic (< 100 revertants/mg)"" in Ames test)"
same,"Ames test result (in words, text)",[1],mutagenic in the absence of S9 mix with TA1537
"c1ncc2[nH]ccc2n1 [5H-Pyrrolo[3,2-d]pyrimidine]","Ames test result (in words, text)",[1],non-mutagenic
c1ccc2[nH]cnc2c1 [Benzimidazole],Ames test result,"TA100, TA98; TA100, TA98 (-S9) ref 14",Non-mutagenic
same,Ames test result,[2],Non-mutagenic
same,"Ames test result (in words, text)",[1],not mutagenic
c1ccc2nnccc2c1 [Cinnoline],Tester strains showing positive (mutagenic activity in rev/mg),TA1537,TA1537 -S9 (13) rev/mg
same,Tester strains showing positive (mutagenic activity in rev/mg),TA1537; listed as cinnoline,13 rev/mg
same,"Ames test result (in words, text)",[1],mutagenic in TA1537; also recorded: mutagenic only in the absence of the S9 mix
same,"Ames test result (in words, text)",[1]; listed as cinnoline,mutagenic in the absence of S9 mix with TA1537
same,Ames test,[1]; quinoline analogues,"+ (""mutagenic (< 100 revertants/mg)"" in Ames test)"
c1ccc2[nH]ncc2c1 [Indazole],Ames test result,"TA100, TA98; TA100, TA98 (-S9) ref 14",Non-mutagenic
same,Tester strains showing positive (mutagenic activity in rev/mg),WP2uvrA; WP2uvrA +S9,38 rev/mg
same,Tester strains showing positive (mutagenic activity in rev/mg),WP2uvrA; WP2uvrA -S9,40 rev/mg
same,Ames test,[1]; indole analogues,"+ (""mutagenic (< 100 revertants/mg)"" in Ames test)"
same,"Ames test result (in words, text)",[1],mutagenic in the presence and absence of S9 mix with WP2uvrA
c1ccc2cnccc2c1 [Isoquinoline],Ames test result,"TA100, TA98; TA100, TA98 (± S9) ref 10",Non-mutagenic
same,"Ames test result (in words, text)",[1],non-mutagenic
c1ccc2cnncc2c1 [Phthalazine],Ames test result,"TA100, TA98; TA100, TA98 (± S9) ref 11",Non-mutagenic
same,"Ames test result (in words, text)",[1],non-mutagenic
"c1cnc2[nH]ncc2c1 [Pyrazolo[3,4-b]pyridine]","Ames test result (in words, text)",[1],non-mutagenic
c1ccc2ncncc2c1 [Quinazoline],"Ames test result (in words, text)",[1],non-mutagenic
c1ccc2ncccc2c1 [Quinoline],Ames test result,[3],"Mutagenic (+ S9) in TA100, TA98, WP2uvrA"
same,"Ames test result (in words, text)",[1],only mutagenic in TA100; also recorded: mutagenic only in the presence of the S9 mix
same,Ames test,[1]; quinoline analogues,"+++ (""mutagenic (>1000 revertants/mg)"" in Ames test)"
c1ccc2nccnc2c1 [Quinoxaline],Ames test result,[4],Non-mutagenic
same,Ames test result,"TA100, TA98, TA102",Mutagenic (+ S9) in TA98
same,"Ames test result (in words, text)",[1],non-mutagenic
